# Test results: ChEMBL document CHEMBL4368904 (J Med Chem, 2019)
# Activity calls are given as the source filed them. No cut-off for these calls is given here.
# Key:
# Mus musculus [1] = assay: Induction of hypothermia in C57BL/6J mouse assessed as activity counts at 3 mg/kg, ip measured at 60 mins post dose (reference value: 15.5 +/- 5.5); format: functional
# [2] = Fraction unbound in rat plasma at 10 uM; format: ADME, cell-free
# Adenosine receptor A1 [3] = biological target: T1, Adenosine receptor A1 (Mus musculus, UniProt Q60612); assay: Displacement of [3H]N6-R-phenylisopropyladenosine from mouse A1A adenosine receptor expressed in CHO cell membranes after 60 mins by scintillation proximity assay
# T1 sequence (Q60612 whole entry): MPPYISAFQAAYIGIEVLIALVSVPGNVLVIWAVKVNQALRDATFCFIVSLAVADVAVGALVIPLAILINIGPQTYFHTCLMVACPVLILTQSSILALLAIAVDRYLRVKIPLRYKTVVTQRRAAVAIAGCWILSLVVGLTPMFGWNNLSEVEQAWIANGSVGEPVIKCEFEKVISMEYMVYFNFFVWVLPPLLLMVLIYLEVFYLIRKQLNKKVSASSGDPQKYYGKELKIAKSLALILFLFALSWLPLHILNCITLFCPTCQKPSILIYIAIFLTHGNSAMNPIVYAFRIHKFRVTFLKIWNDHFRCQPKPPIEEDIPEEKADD
# [4] = biological target: T2, Adenosine receptor A1 (Mus musculus) (UniProt Q60612); assay: Agonist activity at mouse A1A adenosine receptor at 10 uM after 60 mins by [35S]GTPgammaS binding assay relative to (2S,3S,4R,5R)-5-(6-amino-9H-purin-9-yl)-N-ethyl-3,4-dihydroxytetrahydrofuran-2-carboxamide; format: functional
# T2 sequence (whole entry): T1 sequence (Q60612 whole entry)
# Mus musculus [5] = assay: Induction of hypothermia in C57BL/6J mouse assessed as body temperature at 3 mg/kg, ip measured at 60 mins post dose (reference value: 36.3 +/- 0.8 degC); format: functional
# Adenosine receptor A3 [6] = biological target: T3, Adenosine receptor A3 (Mus musculus, UniProt Q61618); assay: Displacement of [125I]N6-(4-amino-3-iodobenzyl)adenosine-5-N-methyluronamide from mouse A3A adenosine receptor expressed in CHO cell membranes after 60 mins by scintillation proximity assay
# T3 sequence (Q61618 whole entry): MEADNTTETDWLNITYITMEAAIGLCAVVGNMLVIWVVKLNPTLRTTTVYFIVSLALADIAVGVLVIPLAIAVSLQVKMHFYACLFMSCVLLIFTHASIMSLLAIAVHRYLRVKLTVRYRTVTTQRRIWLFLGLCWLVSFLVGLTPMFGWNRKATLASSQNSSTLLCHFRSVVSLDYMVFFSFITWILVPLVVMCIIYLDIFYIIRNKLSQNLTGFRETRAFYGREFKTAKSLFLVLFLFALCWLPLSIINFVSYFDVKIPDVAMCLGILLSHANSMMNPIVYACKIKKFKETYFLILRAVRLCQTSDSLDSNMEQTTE
# Mus musculus [7] = organism: Mus musculus; assay: Selectivity index, ratio of Ki for mouse A3A adenosine receptor to Ki for mouse A1A adenosine receptor expressed in CHO cell membranes after 60 mins by scintillation proximity assay
# Mus musculus [8] = assay: Induction of hypothermia in A1AR knock out C57BL/6J mouse assessed as effect on body temperature at 3 mg/kg, ip measured at 60 mins post dose; format: functional, organism-based
# [9] = Fraction unbound in human plasma at 10 uM; format: ADME, cell-free
# [10] = biological target: Adenosine receptor A2a (Mus musculus) (UniProt Q60613); assay: Displacement of [3H]2-[p-(2-carboxyethyl)phenylethylamino]-5-N-ethylcarboxamidoadenosine from mouse A2A adenosine receptor expressed in HEK293 cell membranes at 10 uM after 60 mins by scintillation proximity assay relative to adenosine 5-N-ethyluronamide
# Sequence of Adenosine receptor A2a (Mus musculus) (Q60613 whole entry): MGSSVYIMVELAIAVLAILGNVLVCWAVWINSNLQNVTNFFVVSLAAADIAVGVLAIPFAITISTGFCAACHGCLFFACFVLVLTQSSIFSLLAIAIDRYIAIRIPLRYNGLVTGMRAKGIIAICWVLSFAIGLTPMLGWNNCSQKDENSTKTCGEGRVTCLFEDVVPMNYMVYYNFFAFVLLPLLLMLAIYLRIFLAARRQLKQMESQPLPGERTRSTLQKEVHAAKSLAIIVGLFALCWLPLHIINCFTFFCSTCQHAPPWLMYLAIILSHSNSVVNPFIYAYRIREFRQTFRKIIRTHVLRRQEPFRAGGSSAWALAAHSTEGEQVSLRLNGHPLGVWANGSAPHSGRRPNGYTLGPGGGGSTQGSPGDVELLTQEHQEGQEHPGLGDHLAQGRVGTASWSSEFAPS
# Adenosine receptor A2a [11] = biological target: T4, Adenosine receptor A2a (Homo sapiens, UniProt P29274); assay: Displacement of [3H]2-[p-(2-carboxyethyl)phenylethylamino]-5-N-ethylcarboxamidoadenosine from human A2A adenosine receptor expressed in HEK293 cell membranes after 60 mins by scintillation proximity assay
# T4 sequence (P29274 whole entry): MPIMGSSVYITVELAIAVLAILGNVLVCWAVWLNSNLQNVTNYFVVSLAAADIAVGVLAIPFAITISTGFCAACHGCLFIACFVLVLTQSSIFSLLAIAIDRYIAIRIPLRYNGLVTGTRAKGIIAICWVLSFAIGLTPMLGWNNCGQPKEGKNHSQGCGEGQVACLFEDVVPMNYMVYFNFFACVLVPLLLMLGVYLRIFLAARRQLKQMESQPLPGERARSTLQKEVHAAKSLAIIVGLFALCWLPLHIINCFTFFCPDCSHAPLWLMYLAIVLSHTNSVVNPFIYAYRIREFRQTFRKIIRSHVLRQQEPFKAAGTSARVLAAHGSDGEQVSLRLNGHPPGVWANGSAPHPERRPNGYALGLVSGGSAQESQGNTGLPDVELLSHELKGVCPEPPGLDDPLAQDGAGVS
# Mus musculus [12] = assay: Induction of hypothermia in A3AR knock out C57BL/6J mouse assessed as effect on body temperature at 3 mg/kg, ip measured at 60 mins post dose; format: functional, organism-based
# [13] = biological target: 5-hydroxytryptamine receptor 2B (Homo sapiens, UniProt P41595); assay: Inhibition of 5HT2B (unknown origin)
# Sequence of 5-hydroxytryptamine receptor 2B (P41595 whole entry): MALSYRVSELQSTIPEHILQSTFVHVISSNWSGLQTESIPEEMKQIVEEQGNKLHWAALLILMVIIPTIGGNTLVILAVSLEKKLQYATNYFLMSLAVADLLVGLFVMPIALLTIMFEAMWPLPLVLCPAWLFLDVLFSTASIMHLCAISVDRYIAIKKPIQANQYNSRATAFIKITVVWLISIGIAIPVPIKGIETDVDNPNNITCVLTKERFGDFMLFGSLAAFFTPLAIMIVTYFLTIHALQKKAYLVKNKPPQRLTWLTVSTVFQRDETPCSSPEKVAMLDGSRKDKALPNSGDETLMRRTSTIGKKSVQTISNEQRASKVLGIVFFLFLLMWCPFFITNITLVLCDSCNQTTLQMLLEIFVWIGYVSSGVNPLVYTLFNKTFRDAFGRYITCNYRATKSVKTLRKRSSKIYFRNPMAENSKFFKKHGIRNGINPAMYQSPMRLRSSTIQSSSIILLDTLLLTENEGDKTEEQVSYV
# [14] = biological target: Sodium-dependent noradrenaline transporter (Homo sapiens, UniProt P23975); assay: Inhibition of NET (unknown origin)
# Sequence of Sodium-dependent noradrenaline transporter (P23975 whole entry): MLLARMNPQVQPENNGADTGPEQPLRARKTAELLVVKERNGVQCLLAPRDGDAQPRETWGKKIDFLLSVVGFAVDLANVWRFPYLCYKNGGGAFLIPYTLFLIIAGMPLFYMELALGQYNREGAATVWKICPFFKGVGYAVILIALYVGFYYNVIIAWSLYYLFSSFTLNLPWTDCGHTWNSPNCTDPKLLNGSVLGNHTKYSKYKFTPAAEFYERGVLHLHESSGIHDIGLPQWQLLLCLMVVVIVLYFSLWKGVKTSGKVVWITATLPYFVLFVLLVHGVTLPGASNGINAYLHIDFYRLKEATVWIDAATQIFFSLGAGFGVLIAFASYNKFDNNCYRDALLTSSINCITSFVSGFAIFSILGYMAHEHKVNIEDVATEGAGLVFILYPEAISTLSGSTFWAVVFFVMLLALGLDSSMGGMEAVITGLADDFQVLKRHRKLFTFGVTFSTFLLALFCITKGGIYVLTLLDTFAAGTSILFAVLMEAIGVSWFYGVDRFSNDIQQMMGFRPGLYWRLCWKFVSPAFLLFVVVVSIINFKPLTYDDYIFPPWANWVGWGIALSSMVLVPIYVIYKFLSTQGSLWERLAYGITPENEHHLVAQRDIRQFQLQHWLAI
# Adenosine receptor A1 [15] = biological target: T5, Adenosine receptor A1 (Homo sapiens, UniProt P30542); assay: Displacement of [3H]N6-R-phenylisopropyladenosine from human A1A adenosine receptor expressed in CHO cell membranes after 60 mins by scintillation proximity assay
# T5 sequence (P30542 whole entry): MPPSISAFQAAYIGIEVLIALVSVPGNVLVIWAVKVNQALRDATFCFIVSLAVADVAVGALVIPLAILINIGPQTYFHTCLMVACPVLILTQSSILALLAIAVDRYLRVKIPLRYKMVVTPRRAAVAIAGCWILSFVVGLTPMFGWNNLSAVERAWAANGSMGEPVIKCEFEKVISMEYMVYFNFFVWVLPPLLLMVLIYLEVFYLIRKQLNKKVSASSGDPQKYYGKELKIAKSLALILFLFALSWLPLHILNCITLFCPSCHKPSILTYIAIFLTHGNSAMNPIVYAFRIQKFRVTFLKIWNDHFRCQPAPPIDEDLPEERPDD
# [16] = biological target: T6, Adenosine receptor A3 (Mus musculus) (UniProt Q61618); assay: Agonist activity at mouse A3AR adenosine receptor at 10 uM after 60 mins by [35S]GTPgammaS binding assay relative to (2S,3S,4R,5R)-5-(6-amino-9H-purin-9-yl)-N-ethyl-3,4-dihydroxytetrahydrofuran-2-carboxamide; format: functional
# T6 sequence (whole entry): T3 sequence (Q61618 whole entry)
# Mus musculus [17] = assay: Induction of hypothermia in A1AR/A3AR knock out C57BL/6J mouse assessed as effect on body temperature at 3 mg/kg, ip measured at 60 mins post dose; format: functional, organism-based
# [18] = Fraction unbound in mouse plasma at 10 uM; format: ADME, cell-free
# Adenosine receptor A3 [19] = biological target: T7, Adenosine receptor A3 (Homo sapiens, UniProt P0DMS8); assay: Displacement of [125I]N6-(4-amino-3-iodobenzyl)adenosine-5-N-methyluronamide from human A3A adenosine receptor expressed in CHO cell membranes after 60 mins by scintillation proximity assay
# T7 sequence (P0DMS8 whole entry): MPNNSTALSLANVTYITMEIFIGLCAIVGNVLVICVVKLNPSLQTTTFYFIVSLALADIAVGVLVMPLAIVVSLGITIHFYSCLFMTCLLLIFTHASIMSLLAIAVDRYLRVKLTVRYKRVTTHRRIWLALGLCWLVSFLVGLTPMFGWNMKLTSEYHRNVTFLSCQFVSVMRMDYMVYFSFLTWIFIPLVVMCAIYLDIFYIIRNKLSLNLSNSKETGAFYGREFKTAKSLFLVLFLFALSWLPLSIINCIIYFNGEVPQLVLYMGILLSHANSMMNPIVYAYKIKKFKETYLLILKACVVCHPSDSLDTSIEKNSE
# [20] = biological target: Sigma intracellular receptor 2 (Homo sapiens, UniProt Q5BJF2); assay: Inhibition of sigma receptor 2 (unknown origin)
# Sequence of Sigma intracellular receptor 2 (Q5BJF2 whole entry): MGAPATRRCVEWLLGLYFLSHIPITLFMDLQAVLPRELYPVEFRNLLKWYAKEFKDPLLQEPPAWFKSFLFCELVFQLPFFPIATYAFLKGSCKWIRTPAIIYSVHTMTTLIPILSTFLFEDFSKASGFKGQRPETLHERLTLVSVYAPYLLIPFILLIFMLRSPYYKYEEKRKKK
# [21] = biological target: 5-hydroxytryptamine receptor 7 (Homo sapiens, UniProt P34969); assay: Inhibition of 5HT7R (unknown origin)
# Sequence of 5-hydroxytryptamine receptor 7 (P34969 whole entry): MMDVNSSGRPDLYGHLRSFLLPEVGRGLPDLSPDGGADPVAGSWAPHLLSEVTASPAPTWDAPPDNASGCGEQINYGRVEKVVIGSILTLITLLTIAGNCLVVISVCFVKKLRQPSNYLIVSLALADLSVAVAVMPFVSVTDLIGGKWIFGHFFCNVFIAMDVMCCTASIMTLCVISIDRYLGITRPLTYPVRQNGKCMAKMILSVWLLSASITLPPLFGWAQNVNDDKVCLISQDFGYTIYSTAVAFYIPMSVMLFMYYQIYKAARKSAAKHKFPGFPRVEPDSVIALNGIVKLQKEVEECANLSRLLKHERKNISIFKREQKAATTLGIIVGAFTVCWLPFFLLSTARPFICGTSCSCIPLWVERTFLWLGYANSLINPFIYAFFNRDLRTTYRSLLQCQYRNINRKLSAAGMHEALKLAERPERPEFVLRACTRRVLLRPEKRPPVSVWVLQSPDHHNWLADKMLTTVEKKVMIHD
# [22] = biological target: Sigma non-opioid intracellular receptor 1 (Homo sapiens, UniProt Q99720); assay: Inhibition of sigma receptor 1 (unknown origin)
# Sequence of Sigma non-opioid intracellular receptor 1 (Q99720 whole entry): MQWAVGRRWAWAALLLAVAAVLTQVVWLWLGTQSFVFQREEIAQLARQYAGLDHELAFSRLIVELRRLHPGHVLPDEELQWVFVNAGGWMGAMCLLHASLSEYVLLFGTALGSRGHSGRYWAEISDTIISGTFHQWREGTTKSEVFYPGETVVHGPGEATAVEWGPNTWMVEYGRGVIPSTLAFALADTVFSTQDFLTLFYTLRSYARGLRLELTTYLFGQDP
# Histamine H1 receptor = Histamine H1 receptor (Homo sapiens, UniProt P35367); assay: Inhibition of histamine H1 receptor (unknown origin)
# Sequence of Histamine H1 receptor (P35367 whole entry): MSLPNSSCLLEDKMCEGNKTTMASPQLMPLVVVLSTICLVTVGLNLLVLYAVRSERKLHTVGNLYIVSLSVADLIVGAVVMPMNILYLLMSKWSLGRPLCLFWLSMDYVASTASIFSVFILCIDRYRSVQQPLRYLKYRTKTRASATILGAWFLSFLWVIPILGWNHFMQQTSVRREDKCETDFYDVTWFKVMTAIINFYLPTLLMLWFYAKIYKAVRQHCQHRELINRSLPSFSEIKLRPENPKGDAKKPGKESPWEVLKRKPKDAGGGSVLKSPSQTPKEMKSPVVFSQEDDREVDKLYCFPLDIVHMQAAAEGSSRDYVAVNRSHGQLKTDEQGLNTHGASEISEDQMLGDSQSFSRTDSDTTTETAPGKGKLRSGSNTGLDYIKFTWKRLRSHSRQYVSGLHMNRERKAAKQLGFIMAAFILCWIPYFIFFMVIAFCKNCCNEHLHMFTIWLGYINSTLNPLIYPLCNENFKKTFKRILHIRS
# Adenosine receptor A2a [23] = biological target: T4, Adenosine receptor A2a; assay: Displacement of [3H]2-[p-(2-carboxyethyl)phenylethylamino]-5-N-ethylcarboxamidoadenosine from human A2A adenosine receptor expressed in HEK293 cell membranes at 10 uM after 60 mins by scintillation proximity assay relative to adenosine 5-N-ethyluronamide
# Mus musculus [24] = assay: Induction of hypothermia in C57BL/6J mouse assessed as body temperature at […], icv measured up to 120 mins post dose; format: functional, organism-based
# [25] = Inhibition of rat benzodiazepine receptor
# [26] = biological target: T8, Adenosine receptor A3 (Homo sapiens) (UniProt P0DMS8); assay: Displacement of [125I]N6-(4-amino-3-iodobenzyl)adenosine-5-N-methyluronamide from human A3A adenosine receptor expressed in CHO cell membranes at 10 uM after 60 mins by scintillation proximity assay relative to adenosine 5-N-ethyluronamide
# T8 sequence (whole entry): T7 sequence (P0DMS8 whole entry)
# Mus musculus [27] = assay: Induction of hypothermia in C57BL/6J mouse assessed as body temperature at […], icv measured after 10 hrs post dose; format: functional, organism-based
# Adenosine receptor A1 [28] = biological target: T5, Adenosine receptor A1; assay: Agonist activity at human A1A adenosine receptor expressed in CHOKI cells assessed as induction of beta-arrestin2 recruitment after 60 mins; format: cell-based
# Mus musculus [29] = assay: Induction of hypothermia in C57BL/6J mouse assessed as body temperature at 10 mg/kg, ip measured at 60 mins post dose (reference value: 36.3 +/- 0.8 degC); format: functional
# [30] = biological target: T6, Adenosine receptor A3 (Mus musculus); assay: Displacement of [125I]N6-(4-amino-3-iodobenzyl)adenosine-5-N-methyluronamide from mouse A3A adenosine receptor expressed in CHO cell membranes at 10 uM after 60 mins by scintillation proximity assay relative to adenosine 5-N-ethyluronamide
# Adenosine receptor A1 [31] = biological target: T5, Adenosine receptor A1; assay: Agonist activity at human A1A adenosine receptor expressed in HEK cell membranes incubated for 60 mins by [35S]GTPgammaS binding assay; format: functional
# Adenosine receptor A1 [32] = biological target: T5, Adenosine receptor A1; assay: Agonist activity at human A1A adenosine receptor expressed in HEK cells assessed as inhibition of forskolin-stimulated cAMP production after 60 mins; format: functional, cell-based
# Mus musculus [33] = assay: Induction of hypothermia in C57BL/6J mouse assessed as activity counts at 10 mg/kg, ip measured at 60 mins post dose (reference value: 15.5 +/- 5.5); format: functional
# Histamine H2 receptor = Histamine H2 receptor (Homo sapiens, UniProt P25021); assay: Inhibition of histamine H2 receptor (unknown origin)
# Sequence of Histamine H2 receptor (P25021 whole entry): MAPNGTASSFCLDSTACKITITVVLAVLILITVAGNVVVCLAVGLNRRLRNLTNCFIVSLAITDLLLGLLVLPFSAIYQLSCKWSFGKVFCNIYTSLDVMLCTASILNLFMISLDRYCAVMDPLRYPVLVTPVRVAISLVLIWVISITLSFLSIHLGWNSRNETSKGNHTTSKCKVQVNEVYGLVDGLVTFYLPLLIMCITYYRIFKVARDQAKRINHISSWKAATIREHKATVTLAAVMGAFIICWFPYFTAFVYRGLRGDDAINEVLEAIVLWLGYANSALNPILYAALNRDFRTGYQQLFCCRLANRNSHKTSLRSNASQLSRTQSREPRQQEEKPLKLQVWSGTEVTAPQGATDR
# [34] = biological target: 5-hydroxytryptamine receptor 5A (Homo sapiens, UniProt P47898); assay: Inhibition of 5HT5A (unknown origin)
# Sequence of 5-hydroxytryptamine receptor 5A (P47898 whole entry): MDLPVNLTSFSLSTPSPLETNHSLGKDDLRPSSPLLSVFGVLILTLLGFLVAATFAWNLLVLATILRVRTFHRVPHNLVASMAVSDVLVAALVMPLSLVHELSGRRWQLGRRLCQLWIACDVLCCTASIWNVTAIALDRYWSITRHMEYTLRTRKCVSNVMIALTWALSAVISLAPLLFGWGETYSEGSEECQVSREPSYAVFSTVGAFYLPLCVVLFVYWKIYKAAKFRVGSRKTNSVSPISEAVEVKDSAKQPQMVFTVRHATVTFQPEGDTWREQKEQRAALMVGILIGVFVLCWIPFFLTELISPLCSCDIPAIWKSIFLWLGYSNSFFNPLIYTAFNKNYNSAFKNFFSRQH
# [35] = biological target: T9, Adenosine receptor A1 (Homo sapiens) (UniProt P30542); assay: Displacement of [3H]N6-R-phenylisopropyladenosine from human A1A adenosine receptor expressed in CHO cell membranes at 10 uM after 60 mins by scintillation proximity assay relative to adenosine 5-N-ethyluronamide
# T9 sequence (whole entry): T5 sequence (P30542 whole entry)
# Mus musculus [36] = assay: Induction of hypothermia in C57BL/6J mouse assessed as body temperature at 1 mg/kg, ip measured at 60 mins post dose (reference value: 36.3 +/- 0.8 degC); format: functional
# Translocator protein = Translocator protein (Homo sapiens, UniProt P30536); assay: Inhibition of TSPO (unknown origin) at 10 uM relative to control
# Sequence of Translocator protein (P30536 whole entry): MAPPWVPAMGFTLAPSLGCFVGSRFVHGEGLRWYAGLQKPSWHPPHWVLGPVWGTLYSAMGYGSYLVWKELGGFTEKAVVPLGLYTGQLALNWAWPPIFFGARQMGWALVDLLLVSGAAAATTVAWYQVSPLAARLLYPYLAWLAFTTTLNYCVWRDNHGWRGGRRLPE
structure (smiles),measurement,setting,value
OC[C@@]12C[C@@H]1[C@@H](n1cnc3c(N[C@H]4C[C@H]5CC[C@@H]4C5)nc(Cl)nc31)[C@H](O)[C@@H]2O,Activity,Mus musculus [1],10
same,Fu,[2],6.59%
same,Ki,Adenosine receptor A1 [3],1.05 nM
same,Emax,[4],104%
same,T,Mus musculus [5],33.4 °C
same,Ki,Adenosine receptor A3 [6],574 nM
same,Ratio Ki,Mus musculus [7],547
same,Activity,Mus musculus [8],inactive
same,Fu,[9],9.75%
same,inhibition,[10],15%
same,Ki,Adenosine receptor A2a [11],4260 nM
same,Activity,Mus musculus [12],inactive
same,Ki,[13],472 nM
same,Ki,[14],5740 nM
same,Ki,Adenosine receptor A1 [15],23.6 nM
same,Emax,[16],62%
same,Activity,Mus musculus [17],inactive
same,Fu,[18],7.68%
same,Ki,Adenosine receptor A3 [19],288 nM
O[C@@H]1[C@H](O)[C@@H](CCl)O[C@H]1n1cnc2c(N[C@H]3C[C@H]4CC[C@@H]3C4)ncnc21,Ki,[20],432 nM
same,Ki,Adenosine receptor A3 [6],1560 nM
same,Ki,Adenosine receptor A2a [11],2050 nM
same,Ki,[21],1240 nM
same,Ki,[22],484 nM
same,Ki,Adenosine receptor A3 [19],355 nM
Nc1ncnc2c1ncn2[C@@H]1O[C@H](C(=O)NC2CC2)[C@@H](O)[C@H]1O,Ki,[20],4350 nM
same,Ki,Histamine H1 receptor,7880 nM
OC[C@@]12C[C@@H]1[C@@H](n1cnc3c(NC(C4CCC4)C4CCC4)ncnc31)[C@H](O)[C@@H]2O,Activity,Mus musculus [1],18.1
same,Fu,[2],17.8%
same,inhibition,Adenosine receptor A2a [23],34%
same,Emax,[4],97%
same,Activity,Mus musculus [24],Active
same,Ki,[20],753 nM
same,T,Mus musculus [5],36.2 °C
same,Ki,[25],4080 nM
same,Ratio Ki,Mus musculus [7],1730
same,Fu,[9],14.6%
same,inhibition,[26],51%
same,Activity,Mus musculus [27],Active
same,Emax,[16],92%
same,Fu,[18],27.5%
NC(=O)c1ncn([C@H]2[C@H](O)[C@H](O)[C@]3(CO)C[C@H]23)n1,Fu,[2],> 80%
same,inhibition,Adenosine receptor A2a [23],11%
same,Ki,[20],2090 nM
same,Ratio Ki,Mus musculus [7],400
same,EC50,Adenosine receptor A1 [28],2460 nM
same,T,Mus musculus [29],35.7 °C
same,inhibition,[30],47%
same,Fu,[9],> 80%
same,EC50,Adenosine receptor A1 [31],758 nM
same,inhibition,[26],41%
same,IC50,Adenosine receptor A1 [32],87 nM
same,Activity,Mus musculus [33],19.1
same,Emax,[16],31%
same,Fu,[18],> 80%
CCOC(=O)[C@@]12C[C@@H]1[C@@H](n1cnc3c(NC(C4CC4)C4CC4)nc(Cl)nc31)[C@@H]1OC(C)(C)O[C@@H]12,inhibition,Adenosine receptor A2a [23],15%
same,Ki,Histamine H2 receptor,6380 nM
same,Ki,[34],8690 nM
same,inhibition,[35],49%
same,inhibition,[26],41%
OC[C@H]1O[C@@H](n2cnc3c(NC4CCCC4)ncnc32)[C@H](O)[C@@H]1O [N6-CYCLOPENTYLADENOSINE],T,Mus musculus [36],32.4 °C
CCSC[C@H]1O[C@@H](n2cnc3c(NC(C4CCC4)C4CCC4)ncnc32)[C@H](O)[C@@H]1O,inhibition,Adenosine receptor A2a [23],30%
same,Ki,[20],642 nM
same,inhibition,Translocator protein,90%
